Source: patent US11234943B2, “Use of reservatrol for the treatment of non-alcoholic fatty liver disease (NAFLD)” (priority 2016, dated 2022)
“And” between values parts separate entries of the source, which are not always exact repeats. Equal values may be shown once.

How the values were obtained:
patients with NAFLD [1] = assay: Blood tests in 6-month study of NAFLD patients given resveratrol micronized formulation; assay type: in vivo, human; set-up: unit not given here; conditions: Group B, 200 mg once daily, mean at time 2 (6 months)
Experimental: In this study. 50 mg or 200 mg RSV daily were supplemented to the standard treatment of 44 patients with NAFLD for a period of 6 months and the therapeutic efficacy of RSV was investigated. All patients who participated in this process were volunteers and they have provided written consents as well filled out all the required documents. The patients were selected after they were firstly diagnosed with non-alcoholic fatty liver disease. The primary inclusion criterion was evidence of tatty liver on ultrasonography (LS), which is the most commonly, used imaging technique with remarkable sensitivity. The US findings in non-alcoholic fatty liver disease are:
Participants underwent clinical examination, electrocardiogram and abdominal ultrasound. Also, blood tests were carried out and the following parameters were measured: serum glutamic pyruvic transaminase (SGPT), serum glutamic oxaloacetic transaminase (SGOT), Alkaline phosphatase (ALP), gamma-glutamyl transpeptidase (gGT), glucose, total cholesterol levels, high-density lipoprotein (HDL), low-density lipoprotein (LDL), triglycerides (TG), insulin, insulin resistance, liver value, liver depth, kidney value, kidney depth and difference liver-kidney values.
(§1) Then, the patients were divided into two groups (randomly assigned) according to the treatment given to them. 22 patients were given treatment 50 mg RSV micronized formulation, Evelor capsules once daily, (Group A) and 22 patients were given treatment 200 mg RSV micronized formulation, Evelor capsules, once daily, (Group B). The observation period lasted for 6 months. There was a clinical examination, blood tests and an abdominal ultrasound at the beginning of the study (time 1) and in 6 months (time 2). All patients were on low fat diet and they were being followed up by nutritionist.
Two-way ANOVA with interaction (time and group) was used to test whether there are differences among dose levels, time levels and possible interaction among them. However, no significant interactions were discovered and standard two-way ANOVA was used without interactions. Moreover, an independent t-test was conducted to examine whether there were any differences between the values of physiological parameters at the beginning and the end of the study. A p-value<0.001 was considered to indicate a strongly statistically significant difference. The statistical program used was R 3.2.1.

patients with NAFLD [2] = assay: Adverse reactions during the 6-month study; assay type: in vivo, human; conditions: 50 mg or 200 mg once daily, 6 months
Experimental: Quantitative fat measurement, with ultrasound on the liver and kidney, were carried out. There was an initial measurement (time 1) and one after six months (time 2). […] As will be apparent, the results were highly positive, see the difference (Liver value Kidney Value) which is decreased during the time, even 2.5 years after the end of the study.
as §1

NAFLD patients = conditions: meta-analysis of four trials, 156 patients, cited from earlier work
patients with NAFLD [3] = assay: Quantitative ultrasound liver/kidney echo measurement (liver fat), hepatic/renal value; assay type: in vivo, human; set-up: key to Difference (Liver Value − Kidney Value): hepatic minus renal cortex mean gray scale (US hepatic/renal value); key to Liver Value / Kidney Value: mean gray scale value of pixels within the ROI (echo intensity)
Excerpt: A GE Log IQ5 expert Ultrasound Machine equipped with Ultrasound Transducer Probe (GE 3.5C model 2050357) The equipment can measure the Echo Level (EL) at specific areas and depths. EL measures the mean intensity of pixels within a user defined area (region of interest). Raw data provides the average sum (intensity per pixel)/pixels. The ultrasound depicts on screen the area (in cm^2), mean (intensity dB) and standard deviation (dispersion) Phantom Model 040GSE (CIRS-Multi Purpose, Multi Tissue u/s Phantom) to calibrate the Log IQ. The specific phantom simulates the human liver and kidney organs and serves for calibration.
Regarding the parameters “liver/kidney value” and “liver/kidney depth” we used the same methodology used by Ming-Feng Xia et al., Standardized Ultrasound Hepatic/Renal Ratio and Hepatic Attenuation Rate to Quantify Liver Fat Content: An Improvement Method 10.1038/oby.2011.302.
Ultrasound studies were performed by an experienced radiologist who was unaware of the patient's clinical details and laboratory findings. All the instrument settings, including gain and depth were fixed for each measurement. For assessment of ultrasound hepatic/renal echo value, ultrasound images with both liver and right kidney clearly visualized were obtained in the sagittal liver/right kidney view in the lateral position. A region of interest (ROI) was carefully selected excluding blood vessels, bile ducts and other focal hypoechoic or hyperechoic regions. Another ROI was identified in the right renal cortex with no large vessels, renal sinus or medulla. To avoid the interference of depth-depended echo-intensity attenuation and the borderline echo distorting effects, the boundary between liver and right kidney area should be placed near the center of the image, and the liver and right kidney ROIs were selected at the same depth of the ultrasound images. The gray scale mean value of the pixels within the two ROIs was used as measurement of echo intensity then we subtracted the average hepatic gray scale by the average renal cortex gray scale to calculate the US hepatic/renal value.
Standardization of ultrasound quantitative parameters was performed using an abdominal phantom.
Attenuation measurements were taken at 2 depths, at the Regions of Interest (ROI) xxcm (liver) and yycm (kidney). Attenuation was calculated by subtracting the EL (liver)−EL (kidney)=Hepato-Renal Index Difference.
In sagittal liver/right kidney view, a region of interest (ROI) of 1.5×1.5 cm (1,296 pixels) in the liver parenchyma was selected. The ROI had to be as uniform as possible, excluding blood vessels, bile ducts, and other focal hypo/hyper-echogenicity. Another ROI of 0.5×0.5 cm (144 pixels) was identified in the right renal cortex with no large vessels, renal sinus or medulla. To avoid the interference of depth-depended echo-intensity attenuation and the borderline echo distorting effects, the boundary between liver and right kidney area should be placed near the center of the image, and the liver and right kidney ROIs were selected at the same depth of the ultrasound images. The gray scale mean value of the pixels within the two ROIs was used as measurement of echo intensity. Then we subtracted the average hepatic gray scale by the average renal cortex gray scale to calculate the US hepatic/renal value.
To standardize the measured values of US H/R value and hepatic echo-intensity attenuation rate among different ultrasound machines, a 3D abdominal phantom, containing mimic abdominal organs, was used for standardization in this research.
Then, the patients were divided into two groups (randomly assigned) according to the treatment given to them. 22 patients were given treatment 50 mg RSV micronized formulation, Evelor capsules once daily, (Group A) and 22 patients were given treatment 200 mg RSV micronized formulation, Evelor capsules, once daily, (Group B). The observation period lasted for 6 months. […]

[4] = Group A, 50 mg once daily, mean at time 1 (beginning of study)
[5] = Group A, 50 mg once daily, mean at time 2 (6 months)
[6] = Group B, 200 mg once daily, mean at time 1 (beginning of study)
[7] = Group B, 200 mg once daily, mean at time 2 (6 months)
[8] = individual patients of Group A (50 mg), first ultrasound, 0 month
[9] = individual patients of Group A (50 mg), fourth ultrasound, 2.5 years from the end of the study
[10] = individual patients of Group A (50 mg), second ultrasound, 6 months
[11] = individual patients of Group A (50 mg), third ultrasound, 6 months after the end of the study
[12] = individual patients of Group B (200 mg), first ultrasound, 0 month
[13] = individual patients of Group B (200 mg), fourth ultrasound, 2.5 years from the end of the study
[14] = individual patients of Group B (200 mg), second ultrasound, 6 months
[15] = individual patients of Group B (200 mg), third ultrasound, 6 months after the end of the study

Compound: Oc1ccc(/C=C/c2cc(O)cc(O)c2)cc1 [Resveratrol, resveratrol]
- Insulin (patients with NAFLD [1]): 13.01
- Insulin Resistance (patients with NAFLD [1]): 1489.52
- LDL (patients with NAFLD [1]): 105.95
- SGOT (patients with NAFLD [1]): 30.90
- SGPT (patients with NAFLD [1]): 41.70
- TG (patients with NAFLD [1]): 167.80
- gGT (patients with NAFLD [1]): 25.35
- adverse reactions (side effects) (patients with NAFLD [2]): No adverse reactions (side effects) were noted
- total cholesterol, mean difference (MD) vs placebo (NAFLD patients; 95% CI: 0.18, 0.80, higher in resveratrol groups): 0.49
- low-density lipoprotein, mean difference (MD) vs placebo (NAFLD patients; 95% CI: 0.21, 0.74, higher in resveratrol groups): 0.47
- effects on attenuating NAFLD (NAFLD patients): negligible effects
- Difference L − K value (patients with NAFLD [3]; [4]): 22.71
- Kidney Value (patients with NAFLD [3]; [4]): 32.49
- Liver Value (patients with NAFLD [3]; [4]): 55.20
- Difference L − K value (patients with NAFLD [3]; [5]): 17.00
- Kidney Value (patients with NAFLD [3]; [5]): 28.42
- Liver Value (patients with NAFLD [3]; [5]): 45.42
- Difference L − K value (patients with NAFLD [3]; [6]): 26.46
- Kidney Value (patients with NAFLD [3]; [6]): 32.30
- Liver Value (patients with NAFLD [3]; [6]): 58.77
- Difference L − K value (patients with NAFLD [3]; [7]): 18.115
- Kidney Value (patients with NAFLD [3]; [7]): 25.21
- Liver Value (patients with NAFLD [3]; [7]): 43.33
- liver fat as evidenced by ultrasound measurements (patients with NAFLD [3]; groups A and B, end of the study): strongly statistically significant reduction
- Difference (Liver Value − Kidney Value) (patients with NAFLD [3]; [8]): 14.6 and 32.9 and 20.1 and 23.3 and 43.7 and 34.3
- Kidney Value (patients with NAFLD [3]; [8]): 30.4 and 35.0 and 25.3 and 32.6 and 52.4 and 7.0
- Liver Value (patients with NAFLD [3]; [8]): 45.0 and 67.9 and 45.4 and 55.9 and 96.1 and 41.3
- Difference (Liver Value − Kidney Value) (patients with NAFLD [3]; [9]): 5.5 and 9.8
- Kidney Value (patients with NAFLD [3]; [9]): 75.0 and 75.2
- Liver Value (patients with NAFLD [3]; [9]): 80.5 and 85.0
- Difference (Liver Value − Kidney Value) (patients with NAFLD [3]; [10]): 12.8 and 29.5 and 11.8 and 19 and 18.5 and 20.9
- Kidney Value (patients with NAFLD [3]; [10]): 29.2 and 26.4 and 20.1 and 30.8 and 26.5 and 21.0
- Liver Value (patients with NAFLD [3]; [10]): 42.0 and 55.9 and 31.9 and 49.8 and 45.0 and 41.9
- Difference (Liver Value − Kidney Value) (patients with NAFLD [3]; [11]): 16.7 and 10.3 and 24.4 and 1.6 and 17.6 and 9.4
- Kidney Value (patients with NAFLD [3]; [11]): 81.1 and 60.0 and 64.5 and 57.3 and 67.6 and 48.1
- Liver Value (patients with NAFLD [3]; [11]): 97.8 and 70.3 and 88.9 and 58.9 and 85.2 and 57.5
- Difference (Liver Value − Kidney Value) (patients with NAFLD [3]; [12]): 28.2 and 35.5 and 32.3 and 47.3 and 24.1 and 20.5 and 41 and 18.8
- Kidney Value (patients with NAFLD [3]; [12]): 32.2 and 26.5 and 23.6 and 39.5 and 22.7 and 14.2 and 28.6 and 33.3
- Liver Value (patients with NAFLD [3]; [12]): 60.4 and 62.0 and 55.9 and 86.8 and 46.8 and 34.7 and 69.6 and 52.1
- Difference (Liver Value − Kidney Value) (patients with NAFLD [3]; [13]): 7.9 and 5 and 17.3
- Kidney Value (patients with NAFLD [3]; [13]): 31.2 and 41.0 and 42.8
- Liver Value (patients with NAFLD [3]; [13]): 39.1 and 46.0 and 60.1
- Difference (Liver Value − Kidney Value) (patients with NAFLD [3]; [14]): 14.8 and 23.9 and 19 and 34.2 and 22.2 and 7.4 and 33.5 and 16.4
- Kidney Value (patients with NAFLD [3]; [14]): 33.0 and 22.1 and 31.1 and 18.9 and 14.4 and 42.4 and 17.0 and 16.8
- Liver Value (patients with NAFLD [3]; [14]): 47.8 and 46.0 and 50.1 and 53.1 and 36.6 and 49.8 and 50.5 and 33.2
- Difference (Liver Value − Kidney Value) (patients with NAFLD [3]; [15]): 13.2 and 8.9 and 22.1 and 10 and 18.3 and 13.7 and 6 and 16.8
- Kidney Value (patients with NAFLD [3]; [15]): 61.7 and 53.0 and 55.2 and 84.3 and 55.9 and 71.5 and 75.3 and 40.4
- Liver Value (patients with NAFLD [3]; [15]): 74.9 and 61.9 and 77.3 and 94.3 and 74.2 and 85.2 and 81.3 and 57.2
